Test results reported in ChEMBL document CHEMBL1782020, “Novel 7-phenylsulfanyl-1,2,3,4,10,10a-hexahydro-pyrazino[1,2-a]indoles as dual serotonin 5-HT2C and 5-HT6 receptor ligands” (Bioorg Med Chem Lett, 2010).

Tests used:
[1] = target: 5-hydroxytryptamine receptor 6 (Homo sapiens, UniProt P50406); experiment: Displacement of [3H]5-LSD from human 5HT6 receptor expressed in human HeLa cells; type: cell-based
[2] = target: T1, 5-hydroxytryptamine receptor 2C (Homo sapiens, UniProt P28335); experiment: Displacement of [3H]mesulergine from human 5HT2C receptor in human tsA201 cells; type: cell-based
T1 sequence (P28335 whole entry): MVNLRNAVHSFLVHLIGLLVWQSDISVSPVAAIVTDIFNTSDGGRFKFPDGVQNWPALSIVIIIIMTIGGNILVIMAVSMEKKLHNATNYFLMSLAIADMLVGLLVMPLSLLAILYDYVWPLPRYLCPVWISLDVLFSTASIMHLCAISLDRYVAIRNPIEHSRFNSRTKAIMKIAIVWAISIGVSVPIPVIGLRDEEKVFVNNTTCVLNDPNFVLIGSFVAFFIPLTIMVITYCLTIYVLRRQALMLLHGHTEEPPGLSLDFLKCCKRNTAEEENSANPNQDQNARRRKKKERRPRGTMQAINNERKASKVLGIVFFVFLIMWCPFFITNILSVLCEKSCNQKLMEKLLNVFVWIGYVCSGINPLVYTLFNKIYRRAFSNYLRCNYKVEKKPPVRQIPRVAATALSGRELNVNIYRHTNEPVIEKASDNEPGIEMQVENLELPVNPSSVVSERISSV

Chain of 5-hydroxytryptamine receptor 6 (P50406 whole entry): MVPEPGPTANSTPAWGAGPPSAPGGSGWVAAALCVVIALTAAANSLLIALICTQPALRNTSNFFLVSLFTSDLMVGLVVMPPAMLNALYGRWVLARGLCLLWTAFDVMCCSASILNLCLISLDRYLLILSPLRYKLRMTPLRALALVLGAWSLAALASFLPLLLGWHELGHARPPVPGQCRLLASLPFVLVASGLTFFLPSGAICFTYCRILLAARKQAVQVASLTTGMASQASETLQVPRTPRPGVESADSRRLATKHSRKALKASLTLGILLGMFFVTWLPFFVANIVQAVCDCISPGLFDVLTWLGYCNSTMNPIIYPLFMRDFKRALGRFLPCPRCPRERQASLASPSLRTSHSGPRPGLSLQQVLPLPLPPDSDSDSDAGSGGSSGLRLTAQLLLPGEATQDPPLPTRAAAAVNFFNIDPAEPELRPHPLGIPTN

SMILES	Ki [1] [nM]	Ki [2] [nM]
COc1cccc(Sc2ccc3c(c2)N2CCNCC2C3)c1 (stereo unspecified)	110	120
COc1ccc(Sc2cccc(N3CCNCC3)c2)cc1		74
c1ccc(Sc2cccc(N3CCNCC3)c2)cc1		91
COc1ccc(Sc2ccc3c(c2)N2CCNCC2C3)cc1 (stereo unspecified)	78	57
NCCc1cccc(Sc2ccccc2)c1		150
O=C1NCCN1CCN1CCC(c2cn(-c3ccc(F)cc3)c3ccc(Cl)cc23)CC1 [SERTINDOLE]	5	

Continued by falling Ki [1], values first:

Ki [1] [nM]	Ki [2] [nM]	SMILES
760	280	FC(F)(F)c1ccc(Sc2ccc3c(c2)N2CCNCC2C3)cc1 (stereo unspecified)
330	83	FC(F)(F)c1ccccc1Sc1ccc2c(c1)N1CCNCC1C2 (stereo unspecified)
300	180	FC(F)(F)c1cccc(Sc2ccc3c(c2)N2CCNCC2C3)c1 (stereo unspecified)
160	61	Fc1ccc(Sc2ccc3c(c2)N2CCNCC2C3)cc1 (stereo unspecified)
150	49	Fc1ccccc1Sc1ccc2c(c1)N1CCNCC1C2 (stereo unspecified)
110	68	Cc1ccc(Sc2ccc3c(c2)N2CCNCC2C3)cc1 (stereo unspecified)
81	49	Cc1ccccc1Sc1ccc2c(c1)N1CCNCC1C2 (stereo unspecified)
50	77	Cc1cccc(Sc2ccc3c(c2)N2CCNCC2C3)c1 (stereo unspecified)
23	41	COc1ccccc1Sc1ccc2c(c1)N1CCNCC1C2 (stereo unspecified)
